Measured values: patent US20230265151A1, “GIP/GLP1 CO-AGONIST COMPOUNDS” (priority 2020, published 2023)
Where two headings read alike, the source gives them in different places.

Tests used:
[1] = molecular target: T1, hGCGR (Homo sapiens, UniProt P47871); assay: Functional cAMP formation (HTRF) in HEK-293 clonal cells expressing hGCGR, 0.1% bovine casein, without or with 1.0% human serum albumin; format: cell-based
T1 construct: expressed in transfected cells
Method in brief: (§1)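 Cells were stimulated with peptide for 30 min at 37° C, then lysed in buffer carrying cAMP-d2 and anti-cAMP Eu3+-cryptate for a competitive HTRF read after at least 60 min at room temperature. The 665/620 nm ratio was converted to nM cAMP against a standard curve.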

[2] = molecular target: T2, human GIP receptor (hGIPR) (Homo sapiens, UniProt P48546); assay: [125I]-GIP binding, SPA with membranes of CHO cells expressing hGIPR
T2 construct: expressed in transfected cells; crude membranes
T2 sequence (P48546 22-466): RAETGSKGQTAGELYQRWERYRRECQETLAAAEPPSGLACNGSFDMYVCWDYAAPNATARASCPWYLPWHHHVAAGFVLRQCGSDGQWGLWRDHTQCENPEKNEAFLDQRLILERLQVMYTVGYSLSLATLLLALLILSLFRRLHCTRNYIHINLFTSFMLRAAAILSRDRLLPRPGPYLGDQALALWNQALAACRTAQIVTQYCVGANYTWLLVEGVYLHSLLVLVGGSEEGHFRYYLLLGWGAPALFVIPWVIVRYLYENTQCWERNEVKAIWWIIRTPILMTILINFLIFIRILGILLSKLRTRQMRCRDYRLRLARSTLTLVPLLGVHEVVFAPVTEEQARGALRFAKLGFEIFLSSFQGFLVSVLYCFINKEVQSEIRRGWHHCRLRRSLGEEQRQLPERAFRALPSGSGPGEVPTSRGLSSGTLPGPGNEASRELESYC

[3] = molecular target: hGLP-1R (Homo sapiens, UniProt P43220); assay: Functional cAMP formation (HTRF) in HEK-293 clonal cells expressing hGLP-1R, 0.1% bovine casein, without or with 1.0% human serum albumin; format: cell-based; design: expressed in transfected cells; details: for Emax: percent of maximal response to GLP-1(7-36)NH2
Method in brief: as §1

[4] = molecular target: T3, hGIPR (Homo sapiens, UniProt P48546); assay: Functional cAMP formation (HTRF) in HEK-293 clonal cells expressing hGIPR, 0.1% bovine casein, without or with 1.0% human serum albumin; format: cell-based; details: for EC50: geometric mean
T3 construct: expressed in transfected cells
T3 sequence (P48546 22-466): T2 sequence (P48546 22-466)
Method in brief: as §1

[5] = molecular target: T4, human GLP-1 receptor (hGLP-1R) (Homo sapiens, UniProt P43220); assay: [125I]-GLP-1 binding, SPA with membranes of HEK293 cells expressing hGLP-1R
T4 construct: expressed in transfected cells; crude membranes

hGLP-1R, sequence (P43220 24-463): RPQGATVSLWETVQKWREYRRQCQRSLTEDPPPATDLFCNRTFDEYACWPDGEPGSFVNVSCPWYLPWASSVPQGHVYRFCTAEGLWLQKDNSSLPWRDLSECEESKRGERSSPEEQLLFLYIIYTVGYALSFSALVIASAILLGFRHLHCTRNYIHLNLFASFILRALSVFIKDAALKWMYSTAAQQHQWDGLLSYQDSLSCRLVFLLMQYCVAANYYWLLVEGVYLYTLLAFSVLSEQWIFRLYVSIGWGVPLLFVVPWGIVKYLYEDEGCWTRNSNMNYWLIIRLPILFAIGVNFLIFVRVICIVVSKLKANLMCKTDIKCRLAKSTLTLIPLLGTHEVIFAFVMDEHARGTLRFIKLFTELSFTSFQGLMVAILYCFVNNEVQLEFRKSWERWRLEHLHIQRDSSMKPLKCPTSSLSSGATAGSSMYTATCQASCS
T1 sequence (P47871 26-477): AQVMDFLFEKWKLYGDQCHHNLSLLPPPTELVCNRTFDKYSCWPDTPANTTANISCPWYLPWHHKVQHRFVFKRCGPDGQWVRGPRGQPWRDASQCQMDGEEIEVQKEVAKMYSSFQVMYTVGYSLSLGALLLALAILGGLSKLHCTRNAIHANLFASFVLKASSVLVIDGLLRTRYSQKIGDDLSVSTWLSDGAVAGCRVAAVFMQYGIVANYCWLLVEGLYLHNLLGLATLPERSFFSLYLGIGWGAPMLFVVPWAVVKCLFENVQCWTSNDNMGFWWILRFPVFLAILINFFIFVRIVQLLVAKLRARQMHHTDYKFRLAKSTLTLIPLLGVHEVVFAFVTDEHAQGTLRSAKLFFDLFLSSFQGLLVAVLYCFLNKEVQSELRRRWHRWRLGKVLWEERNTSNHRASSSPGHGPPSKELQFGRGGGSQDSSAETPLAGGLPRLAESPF

In the case of `CCCCCCCCCCCC(=O)N[C@@H](CCC(=O)NCCOCCOCC(=O)NCCOCCOCC(=O)NCCCC[C@H](NC(=O)[C@H](CO)NC(=O)[C@@H]1CCCN1C(=O)[C@@H]1CCCN1C(=O)[C@@H]1CCCN1C(=O)[C@H](C)NC(=O)CNC(=O)[C@H](CO)NC(=O)[C@H](CO)NC(=O)[C@@H]1CCCN1C(=O)CNC(=O)CNC(=O)[C@H](CCC(=O)O)NC(=O)[C@@H](NC(=O)[C@H](CC(C)C)NC(=O)[C@](C)(Cc1ccc(O)cc1)NC(=O)[C@@H](CCC(=O)O)NC(=O)[C@@H](NC(=O)[C@H](Cc1ccccc1)NC(=O)[C@H](CCC(=O)O)NC(=O)C(C)(C)NC(=O)[C@H](CCC(N)=O)NC(=O)[C@H](C)NC(=O)[C@H](CCCCNC(=O)COCCOCCNC(=O)COCCOCCNC(=O)CC[C@H](NC(=O)CCCCCCCCCCC)C(=O)O)NC(=O)[C@H](CCCN)NC(=O)[C@H](CC(=O)O)NC(=O)[C@H](CC(C)C)NC(=O)[C@](C)(CC(C)C)NC(=O)[C@@H](NC(=O)C(C)(C)NC(=O)[C@H](Cc1ccc(O)cc1)NC(=O)[C@H](CC(=O)O)NC(=O)[C@H](CO)NC(=O)[C@@H](NC(=O)[C@](C)(Cc1ccccc1F)NC(=O)[C@@H](NC(=O)CNC(=O)[C@H](CCC(=O)O)NC(=O)C(C)(C)NC(=O)[C@@H](N)Cc1ccc(O)cc1)[C@@H](C)O)[C@@H](C)O)[C@@H](C)CC)[C@@H](C)CC)[C@@H](C)CC)C(N)=O)C(=O)O` [Example 302], the EC50 ([1]; 0.1% bovine casein and 1.0% human serum albumin, 37° C., geometric mean, read-out: hGCGR EC50, nM (SEM, n)) is reported as over 9950 nM, the EC50 ([1]; cAMP, 37° C., 0.1% bovine casein (no human serum albumin), geometric mean, read-out: hGCGR EC50, nM (SEM, n)) is reported as over 9950 nM and the Ki ([2]; human GIPR, geometric mean (SEM, n), read-out: Binding Affinity Ki, nM (SEM, n) hGIPR) is reported as 0.0228 nM. For the same molecule, the Emax ([3]; HEK293, 0.1% bovine casein and 1.0% human serum albumin, 37° C., read-out: hGLP-1R Emax, % ± SEM) was 99.4%, the EC50 ([3]; cAMP, 37° C., 0.1% bovine casein (no human serum albumin), geometric mean, read-out: hGLP-1R EC50, nM (SEM, n)) was 0.0917 nM and the EC50 ([4]; 0.1% bovine casein and 1.0% human serum albumin, 37° C., read-out: hGIPR EC50, nM (SEM, n)) was 0.453 nM. It also gave an Emax ([4]; HEK293, 0.1% bovine casein and 1.0% human serum albumin, 37° C., percent of maximal response to GIP(1-42)NH2, read-out: hGIPR Emax, % ± SEM) of 86.3%, an Emax ([4]; HEK293, cAMP, 37° C., 0.1% bovine casein, percent of maximal response to GIP(1-42)NH2, arithmetic mean, read-out: hGIPR Emax, % ± SEM) of 100% and an EC50 ([4]; cAMP, 37° C., 0.1% bovine casein (no human serum albumin), read-out: hGIPR EC50, nM (SEM, n)) of 0.00916 nM. For the same molecule, the Ki ([5]; human GLP-1R, geometric mean (SEM, n), read-out: Binding Affinity Ki, nM (SEM, n) hGLP-1R) was 0.137 nM.

In the case of `CC[C@H](C)[C@H](NC(=O)[C@H](CC(C)C)NC(=O)[C@](C)(Cc1ccc(O)cc1)NC(=O)[C@H](CCCCNC(=O)COCCOCCNC(=O)CCCCCNC(=O)CC[C@H](NC(=O)CCCCCCCCCOc1ccc(C(=O)O)cc1)C(=O)O)NC(=O)[C@@H](NC(=O)[C@H](Cc1ccccc1)NC(=O)[C@H](CCCN)NC(=O)C(C)(C)NC(=O)[C@H](CCC(N)=O)NC(=O)[C@H](C)NC(=O)[C@H](CCC(N)=O)NC(=O)[C@H](CCCN)NC(=O)[C@H](CC(=O)O)NC(=O)[C@H](CC(C)C)NC(=O)[C@](C)(CC(C)C)NC(=O)[C@@H](NC(=O)C(C)(C)NC(=O)[C@H](Cc1ccncc1)NC(=O)[C@H](CC(=O)O)NC(=O)[C@H](CO)NC(=O)[C@@H](NC(=O)[C@](C)(Cc1ccccc1F)NC(=O)[C@@H](NC(=O)CNC(=O)[C@H](CCC(=O)O)NC(=O)C(C)(C)NC(=O)[C@@H](N)Cc1ccc(O)cc1)[C@@H](C)O)[C@@H](C)O)[C@@H](C)CC)[C@@H](C)CC)C(=O)N[C@@H](CCCCNC(=O)COCCOCCNC(=O)CCCCCNC(=O)CC[C@H](NC(=O)CCCCCCCCCOc1ccc(C(=O)O)cc1)C(=O)O)C(=O)NCC(=O)NCC(=O)N1CCC[C@H]1C(=O)N[C@@H](CO)C(=O)N[C@@H](CO)C(=O)NCC(=O)N[C@@H](C)C(=O)N1CCC[C@H]1C(=O)N1CCC[C@H]1C(=O)N1CCC[C@H]1C(=O)N[C@@H](CO)C(N)=O` [Example 453], the EC50 ([1]; hGCGR EC50, nM (SEM, n), cAMP, 37° C., 0.1% bovine casein (no human serum albumin), geometric mean) is reported as over 9950 nM, the EC50 ([1]; hGCGR EC50, nM (SEM, n), cAMP, 37° C., 0.1% bovine casein and 1.0% human serum albumin, geometric mean (SEM, n)) is reported as over 9950 nM and the Ki [2] is reported as 0.013 nM. For the same molecule, the Emax ([3]; HEK293, read-out: hGLP-1R Emax, % ± SEM, cAMP, 37° C., 0.1% bovine casein, arithmetic mean) was 116%, the EC50 ([3]; hGLP-1R EC50, nM (SEM, n), cAMP, 37° C., 0.1% bovine casein (no human serum albumin), geometric mean) was 0.2 nM and the EC50 ([3]; hGLP-1R EC50, nM (SEM, n), cAMP, 37° C., 0.1% bovine casein and 1.0% human serum albumin, geometric mean (SEM, n)) was 5.47 nM. The Emax ([4]; HEK293, read-out: hGIPR Emax, % ± SEM, cAMP, 37° C., 0.1% bovine casein and 1.0% human serum albumin, percent of maximal response to GIP(1-42)NH2) was 92%, the EC50 ([4]; hGIPR EC50, nM (SEM, n), cAMP, 37° C., 0.1% bovine casein (no human serum albumin)) was 0.0139 nM and the Ki [5] was 0.123 nM.

`CC[C@H](C)[C@H](NC(=O)[C@H](CC(C)C)NC(=O)[C@](C)(Cc1ccc(O)cc1)NC(=O)[C@@H](CCC(=O)O)NC(=O)[C@@H](NC(=O)[C@H](Cc1ccccc1)NC(=O)[C@H](CCC(=O)O)NC(=O)C(C)(C)NC(=O)[C@H](CCC(N)=O)NC(=O)[C@H](C)NC(=O)[C@H](CCCCNC(=O)COCCOCCNC(=O)COCCOCCNC(=O)CC[C@H](NC(=O)CCCc1ccc(C(C)(C)C)cc1)C(=O)O)NC(=O)[C@H](CCCN)NC(=O)[C@H](CC(=O)O)NC(=O)[C@H](CC(C)C)NC(=O)[C@](C)(CC(C)C)NC(=O)[C@@H](NC(=O)[C@H](CO)NC(=O)[C@H](Cc1ccncc1)NC(=O)[C@H](CC(=O)O)NC(=O)[C@H](CO)NC(=O)[C@@H](NC(=O)[C@](C)(Cc1ccccc1F)NC(=O)[C@@H](NC(=O)CNC(=O)[C@H](CCC(=O)O)NC(=O)C(C)(C)NC(=O)[C@@H](N)Cc1ccc(O)cc1)[C@@H](C)O)[C@@H](C)O)[C@@H](C)CC)[C@@H](C)CC)C(=O)N[C@@H](CCC(=O)O)C(=O)NCC(=O)NCC(=O)N[C@@H](CCCCNC(=O)COCCOCCNC(=O)COCCOCCNC(=O)CC[C@H](NC(=O)CCCc1ccc(C(C)(C)C)cc1)C(=O)O)C(=O)N[C@@H](CO)C(=O)N[C@@H](CO)C(=O)NCC(=O)N[C@@H](C)C(=O)N1CCC[C@H]1C(=O)N1CCC[C@H]1C(=O)N1CCC[C@H]1C(=O)N[C@@H](CO)C(N)=O` [Example 4] was tested, and the EC50 ([1]; hGCGR EC50, nM (SEM, n), 0.1% bovine casein and 1.0% human serum albumin, 37° C., geometric mean) was over 9950 nM, the EC50 ([1]; hGCGR EC50, nM (SEM, n), cAMP, incubated at 37° C., 0.1% bovine casein (no human serum albumin), geometric mean) was over 9950 nM and the Ki [2] was 0.0528 nM. It also gave an EC50 ([3]; hGLP-1R EC50, nM (SEM, n), 0.1% bovine casein and 1.0% human serum albumin, 37° C., geometric mean) of 0.584 nM, an EC50 ([3]; hGLP-1R EC50, nM (SEM, n), cAMP, incubated at 37° C., 0.1% bovine casein (no human serum albumin), geometric mean) of 0.137 nM and an Emax ([4]; HEK293, read-out: hGIPR Emax, % ± SEM, 0.1% bovine casein and 1.0% human serum albumin, 37° C., percent of maximal response to GIP(1-42)NH2) of 88.3 ± 2.17%. For the same molecule, the Emax ([4]; HEK293, read-out: hGIPR Emax, % ± SEM, percent of maximal response to GIP(1-42)NH2, 37° C., 0.1% bovine casein, arithmetic mean) was 92.9 ± 0.381%, the EC50 ([4]; hGIPR EC50, nM (SEM, n), 0.1% bovine casein and 1.0% human serum albumin, 37° C.) was 0.0296 nM and the Ki [5] was 0.413 nM.
